Laboratory results taken from US11053204B2, “Pyrimidinyloxy benzene derivatives as herbicides” (FMC Corporation, priority 2015, dated 2021).

Tests used:
Format in all cases: in vivo
[1] = tested on: Italian ryegrass (Lolium multiflorum); assay: Test A postemergence, visual injury rating; conditions: 0 is no effect, 100 is complete control; for Ryegrass, Italian plant response rating: 125 g ai/ha, 0 to 100 scale, approximately 10 days; for Ryegrass, Italian plant response rating (0 to 100 scale): 500 g ai/ha
Summary of the method: (§1)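 Visual 0–100 rating (100 = complete control) taken about 10 d post-treatment relative to untreated checks. Preemergence: directed soil spray on sown loam/sand pots. Postemergence: seedlings 2–10 cm, 1–2 leaf. Non-phytotoxic solvent formulation with surfactant.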

[2] = tested on: barnyardgrass (Echinochloa crus-galli); assay: Test A postemergence, visual injury rating; conditions: 0 is no effect, 100 is complete control
Summary of the method: as §1

[3] = tested on: blackgrass (Alopecurus myosuroides); assay: Test A postemergence, visual injury rating; conditions: 0 is no effect, 100 is complete control
Summary of the method: as §1

corn (Zea mays) = assay: Test A postemergence, visual injury rating; conditions: 0 is no effect, 100 is complete control
Summary of the method: as §1

[4] = tested on: galium (catchweed bedstraw, Galium aparine); assay: Test A postemergence, visual injury rating; conditions: 0 is no effect, 100 is complete control
Summary of the method: as §1

[5] = tested on: giant foxtail (Setaria faberii); assay: Test A postemergence, visual injury rating; conditions: 0 is no effect, 100 is complete control
Summary of the method: as §1

kochia (Kochia scoparia) = assay: Test A postemergence, visual injury rating; conditions: 0 is no effect, 100 is complete control; for Kochia plant response rating: 125 g ai/ha, 0 to 100 scale, approximately 10 days; for Kochia plant response rating (0 to 100 scale): 500 g ai/ha
Summary of the method: as §1

[6] = tested on: pigweed (Amaranthus retroflexus); assay: Test A postemergence, visual injury rating; conditions: 0 is no effect, 100 is complete control; for Pigweed plant response rating: 125 g ai/ha, 0 to 100 scale, approximately 10 days; for Pigweed plant response rating (0 to 100 scale): 500 g ai/ha
Summary of the method: as §1

[7] = tested on: ragweed (common ragweed, Ambrosia elatior); assay: Test A postemergence, visual injury rating; conditions: 0 is no effect, 100 is complete control; for Ragweed plant response rating: 125 g ai/ha, 0 to 100 scale, approximately 10 days; for Ragweed plant response rating (0 to 100 scale): 500 g ai/ha
Summary of the method: as §1

[8] = tested on: wheat (Triticum aestivum); assay: Test A postemergence, visual injury rating; conditions: 0 is no effect, 100 is complete control; for Wheat plant response rating: 125 g ai/ha, 0 to 100 scale, approximately 10 days; for Wheat plant response rating (0 to 100 scale): 500 g ai/ha
Summary of the method: as §1

[9] = tested on: lambsquarters (Chenopodium album); assay: Test C preemergence, plant response rating; conditions: Preemergence
Summary of the method: (§2)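 Pre-emergence: seeds sown in loam soil–sand blend or silt loam and sprayed with test chemicals in a non-phytotoxic solvent mixture with surfactant. Post-emergence: plants 2 to 18 cm (1- to 4-leaf stage) in peat-based potting medium, same formulation. Greenhouse 13 to 15 d; visual rating 0 (no effect) to 100 (complete control) versus controls.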

[10] = tested on: morningglory (Ipomoea coccinea); assay: Test C preemergence, plant response rating; conditions: Preemergence
Summary of the method: as §2

[11] = tested on: nutsedge, yellow (yellow nutsedge, Cyperus esculentus); assay: Test C preemergence, plant response rating; conditions: Preemergence
Summary of the method: as §2

[12] = tested on: velvetleaf (Abutilon theophrasti); assay: Test C preemergence, plant response rating; conditions: Preemergence
Summary of the method: as §2

[13] = tested on: waterhemp (common waterhemp, Amaranthus rudis); assay: Test C preemergence, plant response rating; conditions: Preemergence
Summary of the method: as §2

[14] = tested on: wheat (winter wheat, Triticum aestivum); assay: Test C preemergence, plant response rating; conditions: Preemergence
Summary of the method: as §2

[15] = tested on: barnyardgrass (Echinochloa crus-galli); assay: Test C postemergence, plant response rating; conditions: for Plant response rating, Barnyardgrass: scale 0 to 100; for Barnyardgrass plant response rating: scale 0 to 100 (0 no effect, 100 complete control)
Summary of the method: as §2

[16] = tested on: crabgrass, large (large crabgrass, Digitaria sanguinalis); assay: Test C postemergence, plant response rating; conditions: for Crabgrass, Large plant response rating: scale 0 to 100 (0 no effect, 100 complete control)
Summary of the method: as §2

[17] = tested on: ryegrass, Italian (Italian ryegrass, Lolium multiflorum); assay: Test C postemergence, plant response rating; conditions: for Ryegrass, Italian plant response rating: scale 0 to 100 (0 no effect, 100 complete control)
Summary of the method: as §2

[18] = 125 g ai/ha, 0 to 100 scale, approximately 10 days

N#Cc1cccc(Oc2ncc(Cl)cn2)c1CCCC(F)(F)F [Compound 72]
Ryegrass, Italian plant response rating [1]: 10
Ryegrass, Italian plant response rating (0 to 100 scale) [1]: 40
Barnyardgrass plant response rating (0 to 100 scale) ([2]; 125 g ai/ha): 80
Barnyardgrass plant response rating (0 to 100 scale) ([2]; 500 g ai/ha): 100
Blackgrass plant response rating (0 to 100 scale) ([3]; 125 g ai/ha): 30
Blackgrass plant response rating (0 to 100 scale) ([3]; 500 g ai/ha): 50
Corn plant response rating (0 to 100 scale) (corn (Zea mays); 125 g ai/ha): 50
Corn plant response rating (0 to 100 scale) (corn (Zea mays); 500 g ai/ha): 60
Galium plant response rating (0 to 100 scale) ([4]; 125 g ai/ha): 80
Galium plant response rating (0 to 100 scale) ([4]; 500 g ai/ha): 100
Foxtail, Giant plant response rating (0 to 100 scale) ([5]; 125 g ai/ha): 70
Foxtail, Giant plant response rating (0 to 100 scale) ([5]; 500 g ai/ha): 100
Kochia plant response rating (kochia (Kochia scoparia)): 100
Kochia plant response rating (0 to 100 scale) (kochia (Kochia scoparia)): 100
Pigweed plant response rating [6]: 100
Pigweed plant response rating (0 to 100 scale) [6]: 100
Ragweed plant response rating [7]: 10
Ragweed plant response rating (0 to 100 scale) [7]: 30
Wheat plant response rating [8]: 10
Wheat plant response rating (0 to 100 scale) [8]: 40
Plant response rating, Lambsquarters ([9]; 125 g ai/ha, scale of 0 to 100): 100
Plant response rating, Lambsquarters ([9]; 16 g ai/ha, scale 0 to 100): 65
Plant response rating, Lambsquarters ([9]; 31 g ai/ha, scale 0 to 100): 80
Plant response rating, Lambsquarters ([9]; 62 g ai/ha, scale 0 to 100): 90
Plant response rating, Morningglory ([10]; 125 g ai/ha, scale of 0 to 100): 95
Plant response rating, Morningglory ([10]; 16 g ai/ha, scale 0 to 100): 10
Plant response rating, Morningglory ([10]; 31 g ai/ha, scale 0 to 100): 40
Plant response rating, Morningglory ([10]; 62 g ai/ha, scale 0 to 100): 55
Plant response rating, Nutsedge, Yellow ([11]; 125 g ai/ha, scale of 0 to 100): 0
Plant response rating, Nutsedge, Yellow ([11]; 16 g ai/ha, scale 0 to 100): 0
Plant response rating, Nutsedge, Yellow ([11]; 31 g ai/ha, scale 0 to 100): 0
Plant response rating, Nutsedge, Yellow ([11]; 62 g ai/ha, scale 0 to 100): 0
Plant response rating, Velvetleaf ([12]; 125 g ai/ha, scale of 0 to 100): 100
Plant response rating, Velvetleaf ([12]; 16 g ai/ha, scale 0 to 100): 10
Plant response rating, Velvetleaf ([12]; 31 g ai/ha, scale 0 to 100): 60
Plant response rating, Velvetleaf ([12]; 62 g ai/ha, scale 0 to 100): 55
Plant response rating, Waterhemp ([13]; 125 g ai/ha, scale of 0 to 100): 100
Plant response rating, Waterhemp ([13]; 16 g ai/ha, scale 0 to 100): 100
Plant response rating, Waterhemp ([13]; 31 g ai/ha, scale 0 to 100): 100
Plant response rating, Waterhemp ([13]; 62 g ai/ha, scale 0 to 100): 100
Plant response rating, Wheat ([14]; 125 g ai/ha, scale of 0 to 100): 80
Plant response rating, Wheat ([14]; 16 g ai/ha, scale 0 to 100): 0
Plant response rating, Wheat ([14]; 31 g ai/ha, scale 0 to 100): 0
Plant response rating, Wheat ([14]; 62 g ai/ha, scale 0 to 100): 30
Plant response rating, Barnyardgrass ([15]; 16 g ai/ha): 5
Plant response rating, Barnyardgrass ([15]; 31 g ai/ha): 5
Barnyardgrass plant response rating ([15]; 62 g ai/ha): 10
Barnyardgrass plant response rating ([15]; 125 g ai/ha): 10
Plant response rating, Crabgrass, Large ([16]; 16 g ai/ha, scale 0 to 100): 10
Plant response rating, Crabgrass, Large ([16]; 31 g ai/ha, scale 0 to 100): 10
Crabgrass, Large plant response rating ([16]; 62 g ai/ha): 10
Crabgrass, Large plant response rating ([16]; 125 g ai/ha): 50
Plant response rating, Ryegrass, Italian ([17]; 16 g ai/ha, scale 0 to 100): 5
Plant response rating, Ryegrass, Italian ([17]; 31 g ai/ha, scale 0 to 100): 5
Ryegrass, Italian plant response rating ([17]; 62 g ai/ha): 10
Ryegrass, Italian plant response rating ([17]; 125 g ai/ha): 15

CCCC(=O)c1c(Oc2ncc(Cl)cn2)cccc1C(F)(F)F [Compound 136]
Ryegrass, Italian plant response rating [1]: 10
Ryegrass, Italian plant response rating (0 to 100 scale) [1]: 70
Barnyardgrass plant response rating [2, 18]: 30
Barnyardgrass plant response rating (0 to 100 scale) ([2]; 500 g ai/ha): 80
Blackgrass plant response rating [3, 18]: 50
Blackgrass plant response rating (0 to 100 scale) ([3]; 500 g ai/ha): 100
Corn plant response rating (corn (Zea mays); [18]): 20
Corn plant response rating (0 to 100 scale) (corn (Zea mays); 500 g ai/ha): 50
Galium plant response rating [4, 18]: 40
Galium plant response rating (0 to 100 scale) ([4]; 500 g ai/ha): 100
Foxtail, Giant plant response rating [5, 18]: 30
Foxtail, Giant plant response rating (0 to 100 scale) ([5]; 500 g ai/ha): 90
Kochia plant response rating (kochia (Kochia scoparia)): 80
Kochia plant response rating (0 to 100 scale) (kochia (Kochia scoparia)): 100
Pigweed plant response rating [6]: 100
Pigweed plant response rating (0 to 100 scale) [6]: 100
Ragweed plant response rating [7]: 20
Ragweed plant response rating (0 to 100 scale) [7]: 60
Wheat plant response rating [8]: 10
Wheat plant response rating (0 to 100 scale) [8]: 20
Plant response rating, Lambsquarters ([9]; 125 g ai/ha, scale of 0 to 100): 80
Plant response rating, Lambsquarters ([9]; 31 g ai/ha, scale 0 to 100): 30
Plant response rating, Lambsquarters ([9]; 62 g ai/ha, scale 0 to 100): 25
Plant response rating, Morningglory ([10]; 125 g ai/ha, scale of 0 to 100): 30
Plant response rating, Morningglory ([10]; 31 g ai/ha, scale 0 to 100): 0
Plant response rating, Morningglory ([10]; 62 g ai/ha, scale 0 to 100): 5
Plant response rating, Nutsedge, Yellow ([11]; 125 g ai/ha, scale of 0 to 100): 5
Plant response rating, Nutsedge, Yellow ([11]; 31 g ai/ha, scale 0 to 100): 0
Plant response rating, Nutsedge, Yellow ([11]; 62 g ai/ha, scale 0 to 100): 0
Plant response rating, Velvetleaf ([12]; 125 g ai/ha, scale of 0 to 100): 65
Plant response rating, Velvetleaf ([12]; 31 g ai/ha, scale 0 to 100): 5
Plant response rating, Velvetleaf ([12]; 62 g ai/ha, scale 0 to 100): 15
Plant response rating, Waterhemp ([13]; 125 g ai/ha, scale of 0 to 100): 100
Plant response rating, Waterhemp ([13]; 31 g ai/ha, scale 0 to 100): 100
Plant response rating, Waterhemp ([13]; 62 g ai/ha, scale 0 to 100): 100
Plant response rating, Wheat ([14]; 125 g ai/ha, scale of 0 to 100): 10
Plant response rating, Wheat ([14]; 31 g ai/ha, scale 0 to 100): 0
Plant response rating, Wheat ([14]; 62 g ai/ha, scale 0 to 100): 0
Plant response rating, Barnyardgrass ([15]; 16 g ai/ha): 5
Plant response rating, Barnyardgrass ([15]; 31 g ai/ha): 5
Barnyardgrass plant response rating ([15]; 62 g ai/ha): 10
Barnyardgrass plant response rating ([15]; 125 g ai/ha): 10
Plant response rating, Crabgrass, Large ([16]; 16 g ai/ha, scale of 0 to 100): 5
Plant response rating, Crabgrass, Large ([16]; 31 g ai/ha, scale 0 to 100): 5
Crabgrass, Large plant response rating ([16]; 62 g ai/ha): 10
Crabgrass, Large plant response rating ([16]; 125 g ai/ha): 30
Plant response rating, Ryegrass, Italian ([17]; 16 g ai/ha, scale of 0 to 100): 0
Plant response rating, Ryegrass, Italian ([17]; 31 g ai/ha, scale 0 to 100): 5
Ryegrass, Italian plant response rating ([17]; 62 g ai/ha): 5
Ryegrass, Italian plant response rating ([17]; 125 g ai/ha): 10
